# Data taken from ChEMBL document CHEMBL1201862, “PubChem BioAssay data set” (2004).
#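 A five-concentration, 48-hour dose response in 96-well plates underlies each endpoint, interpolated linearly between surrounding concentrations. GI50: concentration for 50% inhibition of growth.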 Active and inactive are the calls of the source. Rule as the data show it: active = GI50 up to about 1.1 µM and inactive = higher.
# How the values were obtained:
# Experiment in all cases: NCI anticancer screen, dose series, 48 h
# RXF 631 = tested on: RXF 631
# DLD-1 = tested on: DLD-1
# HCT-116 = tested on: HCT-116
# KM12 = tested on: KM12
# SNB-19 = tested on: SNB-19
# SK-MEL-28 = tested on: SK-MEL-28
# SW-620 = tested on: SW-620
# TK-10 = tested on: TK-10
# SK-MEL-2 = tested on: SK-MEL-2
# HOP-18 = tested on: HOP-18
# LXFL 529 = tested on: LXFL 529
# SF-268 = tested on: SF-268
# OVCAR-8 = tested on: OVCAR-8
# M14 = tested on: M14
# M19-MEL = tested on: M19-MEL
# DMS-273 = tested on: DMS-273
# DMS-114 = tested on: DMS-114
# NCI-H522 = tested on: NCI-H522
# A498 = tested on: A498
# NCI-H460 = tested on: NCI-H460
# SK-OV-3 = tested on: SK-OV-3
# LOX IMVI = tested on: LOX IMVI
# KM-20L2 = tested on: KM-20L2
# NCI-H226 = tested on: NCI-H226
# SF-539 = tested on: SF-539
# UO-31 = tested on: UO-31
# SR = tested on: SR
# U-251 = tested on: U-251
# UACC-62 = tested on: UACC-62
# HCT-15 = tested on: HCT-15
# HT-29 = tested on: HT-29
# HCC 2998 = tested on: HCC 2998
# 786-0 = tested on: 786-0
# A549 = tested on: A549
# SNB-75 = tested on: SNB-75
# HL-60 = tested on: HL-60
# MOLT-4 = tested on: MOLT-4
# EKVX = tested on: EKVX
# SNB-78 = tested on: SNB-78
# K562 = tested on: K562
# Malme-3M = tested on: Malme-3M
# ACHN = tested on: ACHN
# OVCAR-3 = tested on: OVCAR-3
# NCI-H23 = tested on: NCI-H23
# OVCAR-5 = tested on: OVCAR-5
# HOP-92 = tested on: HOP-92
# XF498 = tested on: XF498
# HOP-62 = tested on: HOP-62
# CCRF-CEM = tested on: CCRF-CEM
# SK-MEL-5 = tested on: SK-MEL-5
# OVCAR-4 = tested on: OVCAR-4
# UACC-257 = tested on: UACC-257
# CAKI-1 = tested on: CAKI-1
# SF-295 = tested on: SF-295
# RPMI-8226 = tested on: RPMI-8226
# SN12C = tested on: SN12C
# IGROV-1 = tested on: IGROV-1
smiles,measurement,setting,value
COC(=O)/C(=N\NC(N)=O)C(C(=O)C(=O)Nc1ccccc1C(=O)OC)c1nc2ccc(C(=O)c3ccccc3)cc2nc1O (configuration not stated),GI50,RXF 631,> 100 µM (inactive)
same,GI50,DLD-1,> 100 µM (inactive)
same,GI50,HCT-116,> 100 µM (inactive)
same,GI50,KM12,> 100 µM (inactive)
same,GI50,SNB-19,> 100 µM (inactive)
same,GI50,SK-MEL-28,> 100 µM (inactive)
same,GI50,SW-620,> 100 µM (inactive)
same,GI50,TK-10,> 100 µM (inactive)
same,GI50,SK-MEL-2,> 100 µM (inactive)
same,GI50,HOP-18,> 100 µM (inactive)
same,GI50,LXFL 529,> 100 µM (inactive)
same,GI50,SF-268,> 100 µM (inactive)
same,GI50,OVCAR-8,> 100 µM (inactive)
same,GI50,M14,> 100 µM (inactive)
same,GI50,M19-MEL,> 100 µM (inactive)
same,GI50,DMS-273,> 100 µM (inactive)
same,GI50,DMS-114,> 100 µM (inactive)
same,GI50,NCI-H522,> 100 µM (inactive)
same,GI50,A498,> 100 µM (inactive)
same,GI50,NCI-H460,> 100 µM (inactive)
same,GI50,SK-OV-3,> 100 µM (inactive)
same,GI50,LOX IMVI,> 100 µM (inactive)
same,GI50,KM-20L2,> 100 µM (inactive)
same,GI50,NCI-H226,> 100 µM (inactive)
same,GI50,SF-539,> 100 µM (inactive)
same,GI50,UO-31,> 100 µM (inactive)
same,GI50,SR,> 100 µM (inactive)
same,GI50,U-251,> 100 µM (inactive)
same,GI50,UACC-62,> 100 µM (inactive)
same,GI50,HCT-15,> 100 µM
same,GI50,HT-29,> 100 µM (inactive)
same,GI50,HCC 2998,> 100 µM (inactive)
same,GI50,786-0,> 100 µM (inactive)
same,GI50,A549,> 100 µM (inactive)
same,GI50,SNB-75,> 100 µM (inactive)
same,GI50,HL-60,> 100 µM (inactive)
same,GI50,MOLT-4,> 100 µM (inactive)
same,GI50,EKVX,> 100 µM (inactive)
same,GI50,SNB-78,> 100 µM (inactive)
same,GI50,K562,> 100 µM (inactive)
same,GI50,Malme-3M,> 100 µM (inactive)
same,GI50,ACHN,> 100 µM (inactive)
same,GI50,OVCAR-3,> 100 µM (inactive)
same,GI50,NCI-H23,> 100 µM (inactive)
same,GI50,OVCAR-5,> 100 µM (inactive)
same,GI50,HOP-92,> 100 µM (inactive)
same,GI50,XF498,> 100 µM (inactive)
same,GI50,HOP-62,> 100 µM (inactive)
same,GI50,CCRF-CEM,> 100 µM (inactive)
same,GI50,SK-MEL-5,> 100 µM (inactive)
same,GI50,OVCAR-4,> 100 µM (inactive)
same,GI50,UACC-257,> 100 µM (inactive)
same,GI50,CAKI-1,> 100 µM (inactive)
same,GI50,SF-295,> 100 µM (inactive)
same,GI50,RPMI-8226,> 100 µM (inactive)
same,GI50,SN12C,> 100 µM (inactive)
same,GI50,IGROV-1,> 100 µM (inactive)
